The experiment concerns the target human mGluR7 (Homo sapiens (Human), UniProt Q14831). As to the kind of experiment: Inositol monophosphate production assay (IP1 assay), inhibition of L-AP4 response. It counts as cell-based. Particulars: mean IC50 from at least two independent experiments; HEK293 cells transiently transfected with mGluR7, Gqtop and EAAC1; IP1 production vs EC80 L-AP4. The source says: Inositol Monophosphate Production Assay (IP1 Assay):
HEK293 cells were transiently transfected with mGluR7 by electroporation and seeded in a poly-ornithine coated 96-well plate at the density of 150 000 cells/well. To allow the monitoring of receptor activity through measurements of inositol monophosphate (IP1) production, mGluR7 was transfected with a chimeric Gq/Gi protein (Gqtop). and was also co-transfected with EAAC1, a glutamate transporter, to avoid influence of extracellular glutamate. Cells were cultured in Dulbecco's Modified Eagle Medium (DMEM, Invitrogen, Cergy Pontoise, France), supplemented with 10% of Fetal Bovine Serum (FBS). Medium was changed by Glutamax™ (Invitrogen, Cergy Pontoise, France) to reduce extracellular glutamate concentration 3 hours before stimulation
IP1 production was determined using the IP-One HTRF kit (CisBio Bioassays), a competitive immunoassay using cryptate-labeled anti-IP1 antibody and d2-labeled IP, according to the manufacturer's recommendations. All points were realized in triplicate.
Data were analyzed with Prism 6 software (GraphPadSoftware, San Diego, Calif.). Typically, in each experiment, a four-parameter concentration-response curve equation was used to fit data and potency (IC50) is estimated as logarithms (log IC50). Data were calculated as % of the control mGluR7 agonist L-AP4 response, defined as the response that is generated upon addition of an EC80-equivalent concentration of L-AP4.
The Table 2 below represents the mean IC50 obtained from at least two independent experiments.

In general, IC50 refers to the concentration that inhibits the measured activity by half. Low readings indicate greater potency, high ones weaker potency.

Each structure is given as a SMILES string.

human mGluR7, sequence (Q14831 35-915): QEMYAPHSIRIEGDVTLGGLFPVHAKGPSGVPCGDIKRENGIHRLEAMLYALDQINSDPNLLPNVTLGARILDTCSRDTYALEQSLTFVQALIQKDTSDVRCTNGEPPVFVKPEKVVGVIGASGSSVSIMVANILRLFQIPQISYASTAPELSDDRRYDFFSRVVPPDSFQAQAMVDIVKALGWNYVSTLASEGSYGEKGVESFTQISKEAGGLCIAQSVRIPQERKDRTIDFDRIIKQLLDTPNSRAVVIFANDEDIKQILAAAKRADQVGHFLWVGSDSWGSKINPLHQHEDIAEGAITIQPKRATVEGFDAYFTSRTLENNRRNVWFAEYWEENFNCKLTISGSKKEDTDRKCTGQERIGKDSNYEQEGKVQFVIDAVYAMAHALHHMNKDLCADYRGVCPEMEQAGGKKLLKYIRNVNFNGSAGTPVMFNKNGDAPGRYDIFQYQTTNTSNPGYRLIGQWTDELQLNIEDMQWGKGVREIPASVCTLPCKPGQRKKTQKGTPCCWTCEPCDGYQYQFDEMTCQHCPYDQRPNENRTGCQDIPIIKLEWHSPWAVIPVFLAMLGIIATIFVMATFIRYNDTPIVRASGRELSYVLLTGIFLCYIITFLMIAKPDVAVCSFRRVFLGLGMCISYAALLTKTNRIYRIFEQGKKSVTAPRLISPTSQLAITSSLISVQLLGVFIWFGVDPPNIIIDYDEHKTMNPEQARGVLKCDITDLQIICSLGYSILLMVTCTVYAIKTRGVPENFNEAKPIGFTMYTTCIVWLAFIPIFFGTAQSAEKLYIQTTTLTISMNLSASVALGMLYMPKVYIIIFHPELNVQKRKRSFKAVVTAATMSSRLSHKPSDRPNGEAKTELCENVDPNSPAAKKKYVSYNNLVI

For `Cc1ccc(C2CCc3c(cnn(-c4ccccn4)c3=O)C2)c(C)c1` (single isomer, unassigned; (+)) [Example 5, (+)-6-(2,4-dimethyl-phenyl)-2-pyridin-2-yl-5,6,7,8-tetrahydro-2H-phthalazin-1-one], the IC50 is less than 500 nM.
The result for `Cc1c(OC2CC2)cccc1C1CCc2c(cnn(-c3ncccn3)c2=O)C1` (single isomer, unassigned; (+)) [Example 129, (+)-6-(3-cyclopropoxy-2-methylphenyl)-2-(pyrimidin-2-yl)-5,6,7,8-tetrahydrophthalazin-1(2H)-one] reads 500 to 1000 nM.
As for `O=c1c2c(cnn1-c1ncccn1)CC(c1cccc(OC3CC3)c1Cl)CC2` (single isomer, unassigned; (+)) [Example 131, (+)-6-(2-chloro-3-cyclopropoxyphenyl)-2-(pyrimidin-2-yl)-5,6,7,8-tetrahydrophthalazin-1(2H)-one], the IC50 is less than 500 nM.
The value for `Cc1cnc(-n2ncc3c(c2=O)CCC(c2cccc(OC4CC4)c2C)C3)nc1` (single isomer, unassigned; (+)) [Example 133, (+)-6-(3-cyclopropoxy-2-methylphenyl)-2-(5-methylpyrimidin-2-yl)-5,6,7,8-tetrahydrophthalazin-1(2H)-one] was 1000 to 30000 nM; that for `COc1cccc(C2CCc3c(cnn(-c4ncc(C)cn4)c3=O)C2)c1Cl` (single isomer, unassigned; (+)) [Example 135, (+)-6-(2-chloro-3-methoxyphenyl)-2-(5-methylpyrimidin-2-yl)-5,6,7,8-tetrahydrophthalazin-1(2H)-one] was 500 to 1000 nM.
The molecule `CC(=O)Nc1cnc(-n2ncc3c(c2=O)CCC(c2ccc(C)cc2C)C3)nc1` (single isomer, unassigned; (+)) [Example 137, (+)-N-(2-(6-(2,4-dimethylphenyl)-1-oxo-5,6,7,8-tetrahydrophthalazin-2(1H)-yl)pyrimidin-5-yl)acetamide] yielded a 50% inhibitory concentration (IC50) of less than 500 nM.
For `O=c1c2c(cnn1-c1ncccn1)CC(c1cccc3c1ccn3C1CC1)CC2` (single isomer, unassigned; (+)) [Example 138, (+)-6-(1-cyclopropyl-1H-indol-4-yl)-2-(pyrimidin-2-yl)-5,6,7,8-tetrahydrophthalazin-1(2H)-one], the IC50 lay in the range of 500 to 1000 nM.
The value for `Cc1ccc(C2CCc3c(cnn(-c4ccccn4)c3=O)C2)c(C)c1` (single isomer, unassigned; (-)) [Example 4, (−)-6-(2,4-dimethyl-phenyl)-2-pyridin-2-yl-5,6,7,8-tetrahydro-2H-phthalazin-1-one] was 1000 to 30000 nM; that for `Cc1c(OC2CC2)cccc1C1CCc2c(cnn(-c3ncccn3)c2=O)C1` (single isomer, unassigned; (-)) [Example 128, (−)-6-(3-cyclopropoxy-2-methylphenyl)-2-(pyrimidin-2-yl)-5,6,7,8-tetrahydrophthalazin-1(2H)-one] was less than 500 nM.
With `O=c1c2c(cnn1-c1ncccn1)CC(c1cccc(OC3CC3)c1Cl)CC2` (single isomer, unassigned; (-)) [Example 130, (−)-6-(2-chloro-3-cyclopropoxyphenyl)-2-(pyrimidin-2-yl)-5,6,7,8-tetrahydrophthalazin-1(2H)-one], the concentration for half-maximal inhibition (IC50) is less than 500 nM.
The value for `Cc1cnc(-n2ncc3c(c2=O)CCC(c2cccc(OC4CC4)c2C)C3)nc1` (single isomer, unassigned; (-)) [Example 132, (−)-6-(3-cyclopropoxy-2-methylphenyl)-2-(5-methylpyrimidin-2-yl)-5,6,7,8-tetrahydrophthalazin-1(2H)-one] was less than 500 nM; that for `COc1cccc(C2CCc3c(cnn(-c4ncc(C)cn4)c3=O)C2)c1Cl` (single isomer, unassigned; (-)) [Example 134, (−)-6-(2-chloro-3-methoxyphenyl)-2-(5-methylpyrimidin-2-yl)-5,6,7,8-tetrahydrophthalazin-1(2H)-one] was less than 500 nM.
In the case of `CC(=O)Nc1cnc(-n2ncc3c(c2=O)CCC(c2ccc(C)cc2C)C3)nc1` (single isomer, unassigned; (-)) [Example 136, (−)-N-(2-(6-(2,4-dimethylphenyl)-1-oxo-5,6,7,8-tetrahydrophthalazin-2(1H)-yl)pyrimidin-5-yl)acetamide], the IC50 lay in the range of 1000 to 30000 nM.
The result for `O=c1c2c(cnn1-c1ncccn1)CC(c1cccc3c1ccn3C1CC1)CC2` (single isomer, unassigned; (-)) [Example 139, (−)-6-(1-cyclopropyl-1H-indol-4-yl)-2-(pyrimidin-2-yl)-5,6,7,8-tetrahydrophthalazin-1(2H)-one] reads less than 500 nM.
The molecule `Cc1ccc(C2CCc3c(cnn(-c4ccccn4)c3=O)C2)c(C)c1` (centres unmarked) [Example 1, 6-(2,4-dimethyl-phenyl)-2-pyridin-2-yl-5,6,7,8-tetrahydro-2H-phthalazin-1-one] came in with an IC50 of less than 500 nM.
With `COc1cccc(C2CCc3c(cnn(-c4ccccn4)c3=O)C2)c1` (centres unmarked) [Example 2, 6-(3-methoxyphenyl)-2-(pyridin-2-yl)-5,6,7,8-tetrahydrophthalazin-1(2H)-one], the IC50 fell in the range of 500 to 1000 nM.
The value for `COc1ccc(C2CCc3c(cnn(-c4ccccn4)c3=O)C2)cc1` (centres unmarked) [Example 3, 6-(4-methoxyphenyl)-2-(pyridin-2-yl)-5,6,7,8-tetrahydrophthalazin-1(2H)-one] was 1000 to 30000 nM.
The result for `Cc1ccc(C2CCc3c(cnn(-c4ccc(Cl)cn4)c3=O)C2)c(C)c1` (centres unmarked) [Example 6, 6-(2,4-dimethylphenyl)-2-(5-chlororopyridin-2-yl)-5,6,7,8-tetrahydro-phthalazin-1(2H)-one] reads less than 500 nM; that for `Cc1ccc(C2CCc3c(cnn(-c4cc(Cl)ccn4)c3=O)C2)c(C)c1` (centres unmarked) [Example 7, 2-(4-chloropyridin-2-yl)-6-(2,4-dimethylphenyl)-5,6,7,8-tetrahydrophthalazin-1(2H)-one], less than 500 nM; that for `Cc1ccc(C2CCc3c(cnn(-c4ncccc4Cl)c3=O)C2)c(C)c1` (centres unmarked) [Example 8, 2-(3-chloropyridin-2-yl)-6-(2,4-dimethylphenyl)-5,6,7,8-tetrahydrophthalazin-1(2H)-one], less than 500 nM.
The result for `Cc1ccc(C2CCc3c(cnn(-c4cccc(F)n4)c3=O)C2)c(C)c1` (centres unmarked) [Example 9, 6-(2,4-dimethylphenyl)-2-(6-fluoropyridin-2-yl)-5,6,7,8-tetrahydrophthalazin-1(2H)-one] reads less than 500 nM; that for `Cc1ccc(C2CCc3c(cnn(-c4ccc(F)cn4)c3=O)C2)c(C)c1` (centres unmarked) [Example 10, 6-(2,4-dimethylphenyl)-2-(5-fluoropyridin-2-yl)-5,6,7,8-tetrahydrophthalazin-1(2H)-one], less than 500 nM; that for `Cc1ccc(C2CCc3c(cnn(-c4cc(F)ccn4)c3=O)C2)c(C)c1` (centres unmarked) [Example 11, 6-(2,4-dimethylphenyl)-2-(4-fluoropyridin-2-yl)-5,6,7,8-tetrahydrophthalazin-1(2H)-one], less than 500 nM.
In the case of `Cc1ccc(C2CCc3c(cnn(-c4ncccc4F)c3=O)C2)c(C)c1` (centres unmarked) [Example 12, 6-(2,4-dimethylphenyl)-2-(3-fluoropyridin-2-yl)-5,6,7,8-tetrahydrophthalazin-1(2H)-one], the IC50 is less than 500 nM.
`COc1cccc(-n2ncc3c(c2=O)CCC(c2ccc(C)cc2C)C3)n1` (centres unmarked) [Example 13, 6-(2,4-dimethylphenyl)-2-(6-methoxypyridin-2-yl)-5,6,7,8-tetrahydrophthalazin-1(2H)-one] displayed an IC50 of less than 500 nM.
`COc1ccc(-n2ncc3c(c2=O)CCC(c2ccc(C)cc2C)C3)nc1` (centres unmarked) [Example 14, 6-(2,4-dimethylphenyl)-2-(5-methoxypyridin-2-yl)-5,6,7,8-tetrahydrophthalazin-1(2H)-one] had an IC50 of less than 500 nM.
For the molecule `COc1ccnc(-n2ncc3c(c2=O)CCC(c2ccc(C)cc2C)C3)c1` (centres unmarked) [Example 15, 6-(2,4-dimethylphenyl)-2-(4-methoxypyridin-2-yl)-5,6,7,8-tetrahydrophthalazin-1(2H)-one], the IC50 was less than 500 nM.
The result for `COc1cccnc1-n1ncc2c(c1=O)CCC(c1ccc(C)cc1C)C2` (centres unmarked) [Example 16, 6-(2,4-dimethylphenyl)-2-(3-methoxypyridin-2-yl)-5,6,7,8-tetrahydrophthalazin-1(2H)-one] reads less than 500 nM.
The result for `Cc1ccc(C2CCc3c(cnn(-c4cccc(C)n4)c3=O)C2)c(C)c1` (centres unmarked) [Example 17, 6-(2,4-dimethylphenyl)-2-(6-methylpyridin-2-yl)-5,6,7,8-tetrahydrophthalazin-1(2H)-one] reads less than 500 nM; that for `Cc1ccc(-n2ncc3c(c2=O)CCC(c2ccc(C)cc2C)C3)nc1` (centres unmarked) [Example 18, 6-(2,4-dimethylphenyl)-2-(5-methylpyridin-2-yl)-5,6,7,8-tetrahydrophthalazin-1(2H)-one], less than 500 nM.
`Cc1ccnc(-n2ncc3c(c2=O)CCC(c2ccc(C)cc2C)C3)c1` (centres unmarked) [Example 19, 6-(2,4-dimethylphenyl)-2-(4-methylpyridin-2-yl)-5,6,7,8-tetrahydrophthalazin-1(2H)-one] gave a half-inhibitory concentration (IC50) of less than 500 nM.
The molecule `Cc1ccc(C2CCc3c(cnn(-c4ncccc4C)c3=O)C2)c(C)c1` (centres unmarked) [Example 20, 6-(2,4-dimethylphenyl)-2-(3-methylpyridin-2-yl)-5,6,7,8-tetrahydrophthalazin-1(2H)-one] yielded an IC50 of less than 500 nM.
